This data set is described as follows: Time course of conversion to indirubin in FaSSGF at 37° C.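 For all read-outs here: compound incubated in fasted state simulated gastric fluid, species in samples quantified by UPLC-MS with UV (210–400 nm) and ELS detection.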 It counts as physicochemical. As to conditions: FaSSGF (Example 4; table title prints FaSSIF) 37° C.; for Conversion to indirubin: over a 24 hour period.

As to `O=C1/C(=C2/C(=O)N(CN3CCC3)c3ccccc32)Nc2ccccc21` [drawing 275], the Conversion to indirubin is given as 20-40%. Under “15 min”, the indirubin was determined as 25%, the indirubin methylene alcohol is recorded as 2% and the “starting material (prodrug compound)” value was 71%. For the same compound, under “30 min”, the indirubin was determined as 26%, the indirubin methylene alcohol was determined as 4% and the “starting material (prodrug compound)” value is listed as 70%. Also, for the setting “1 h”, the indirubin was determined as 25%, the indirubin methylene alcohol is given as 2% and the “starting material (prodrug compound)” value is given as 71%. Moreover, where the note is “2 h”, the indirubin is 24%, the indirubin methylene alcohol is 2% and the “starting material (prodrug compound)” value was found to be 71%. Also, under “24 h”, the indirubin was 23%, the indirubin methylene alcohol is given as 3% and the “starting material (prodrug compound)” value amounted to 74%.
For the compound `O=C1/C(=C2/C(=O)N(C(=O)NC3CCOCC3)c3ccccc32)Nc2ccccc21` [drawing 278], the Conversion to indirubin is recorded as 0-20%. Also, for the setting “15 min”, the indirubin is 7%, the indirubin methylene alcohol was 0% and the “starting material (prodrug compound)” value is listed as 69%. Also, under “30 min”, the indirubin worked out at 12%, the indirubin methylene alcohol stood at 0% and the “starting material (prodrug compound)” value was determined as 61%. For the setting “1 h”, the indirubin was found to be 11%, the indirubin methylene alcohol amounted to 0% and the “starting material (prodrug compound)” value was 82%. Also, where the note is “2 h”, the indirubin was 9%, the indirubin methylene alcohol was 0% and the “starting material (prodrug compound)” value is listed as 58%. Moreover, for the setting “24 h”, the indirubin is given as 10%, the indirubin methylene alcohol is 0% and the “starting material (prodrug compound)” value amounted to 86%.
For `CC(=O)N1CCN(CN2C(=O)/C(=C3\Nc4ccccc4C3=O)c3ccccc32)CC1` [drawing 281], the Conversion to indirubin is 0-20%. Also, under “15 min”, the indirubin is on record as 4%, the indirubin methylene alcohol was found to be 4% and the “starting material (prodrug compound)” value worked out at 92%. Moreover, for the setting “30 min”, the indirubin came out at 3%, the indirubin methylene alcohol was 0% and the “starting material (prodrug compound)” value was determined as 97%. Further, where the note is “1 h”, the indirubin is 4%, the indirubin methylene alcohol is listed as 4% and the “starting material (prodrug compound)” value turned out to be 87%. Moreover, under “2 h”, the indirubin is on record as 3%, the indirubin methylene alcohol came out at 0% and the “starting material (prodrug compound)” value came out at 97%. Moreover, under “24 h”, the indirubin was determined as 0%, the indirubin methylene alcohol was determined as 0% and the “starting material (prodrug compound)” value is recorded as 100%.
With `O=C1/C(=C2/C(=O)N(CN3CCCC3)c3ccccc32)Nc2ccccc21` [drawing 270], the Conversion to indirubin is listed as 80-100%. In addition, where the note is “15 min”, the indirubin worked out at 100%, the indirubin methylene alcohol turned out to be 0% and the “starting material (prodrug compound)” value worked out at 0%. In addition, where the note is “30 min”, the indirubin worked out at 100%, the indirubin methylene alcohol amounted to 0% and the “starting material (prodrug compound)” value came to 0%. Under “1 h”, the indirubin is on record as 100%, the indirubin methylene alcohol is recorded as 0% and the “starting material (prodrug compound)” value stood at 0%. Where the note is “2 h”, the indirubin came out at 100%, the indirubin methylene alcohol turned out to be 0% and the “starting material (prodrug compound)” value is listed as 0%. Moreover, under “24 h”, the indirubin was 99%, the indirubin methylene alcohol worked out at 1% and the “starting material (prodrug compound)” value worked out at 0%.
For the compound `O=C1/C(=C2/C(=O)N(CN3CCC(F)(F)CC3)c3ccccc32)Nc2ccccc21` [drawing 280], the Conversion to indirubin is recorded as 0-20%.
Take `CN1CCN(CN2C(=O)/C(=C3\Nc4ccccc4C3=O)c3ccccc32)CC1` [drawing 273]: the Conversion to indirubin is recorded as 40-60%. Besides, under “15 min”, the indirubin was determined as 23%, the indirubin methylene alcohol stood at 0% and the “starting material (prodrug compound)” value was 75%. In addition, under “30 min”, the indirubin was determined as 18%, the indirubin methylene alcohol came out at 0% and the “starting material (prodrug compound)” value came to 76%. Besides, where the note is “1 h”, the indirubin is 24%, the indirubin methylene alcohol was 0% and the “starting material (prodrug compound)” value is given as 74%. Under “2 h”, the indirubin is listed as 24%, the indirubin methylene alcohol was determined as 0% and the “starting material (prodrug compound)” value was found to be 76%. Besides, for the setting “24 h”, the indirubin was found to be 41%, the indirubin methylene alcohol is reported as 0% and the “starting material (prodrug compound)” value is recorded as 58%.
In the case of `CN(C)C1CCN(CN2C(=O)/C(=C3\Nc4ccccc4C3=O)c3ccccc32)CC1` [drawing 272], the Conversion to indirubin is 60-80%. Moreover, under “15 min”, the indirubin is recorded as 51%, the indirubin methylene alcohol was found to be 5% and the “starting material (prodrug compound)” value was 41%. In addition, where the note is “30 min”, the indirubin was 55%, the indirubin methylene alcohol is on record as 5% and the “starting material (prodrug compound)” value is recorded as 36%. Also, under “1 h”, the indirubin was 44%, the indirubin methylene alcohol is recorded as 10% and the “starting material (prodrug compound)” value worked out at 46%. Further, for the setting “2 h”, the indirubin amounted to 44%, the indirubin methylene alcohol was found to be 10% and the “starting material (prodrug compound)” value was 46%. Under “24 h”, the indirubin worked out at 61%, the indirubin methylene alcohol was found to be 1% and the “starting material (prodrug compound)” value is 31%.
As to `O=C1/C(=C2/C(=O)N(CO)c3ccccc32)Nc2ccccc21` [drawing 274], the Conversion to indirubin was 20-40%. Also, for the setting “15 min”, the indirubin was 8%, the indirubin methylene alcohol turned out to be 92% and the “starting material (prodrug compound)” value stood at 0%. Besides, where the note is “30 min”, the indirubin came out at 18%, the indirubin methylene alcohol is on record as 82% and the “starting material (prodrug compound)” value is given as 0%. Besides, for the setting “1 h”, the indirubin is on record as 12%, the indirubin methylene alcohol came to 88% and the “starting material (prodrug compound)” value was determined as 0%. Besides, where the note is “2 h”, the indirubin is reported as 18%, the indirubin methylene alcohol is reported as 82% and the “starting material (prodrug compound)” value is given as 0%. For the same compound, where the note is “24 h”, the indirubin came out at 22%, the indirubin methylene alcohol came out at 78% and the “starting material (prodrug compound)” value stood at 0%.
Consider `CCN(CC)CN1C(=O)/C(=C2\Nc3ccccc3C2=O)c2ccccc21` [drawing 267], for which the Conversion to indirubin is 80-100%. Also, for the setting “15 min”, the indirubin was found to be 100%, the indirubin methylene alcohol came to 0% and the “starting material (prodrug compound)” value is given as 0%. Moreover, under “30 min”, the indirubin amounted to 100%, the indirubin methylene alcohol came out at 0% and the “starting material (prodrug compound)” value is recorded as 0%. For the setting “1 h”, the indirubin was 100%, the indirubin methylene alcohol is recorded as 0% and the “starting material (prodrug compound)” value turned out to be 0%. Besides, under “2 h”, the indirubin came to 100%, the indirubin methylene alcohol came out at 0% and the “starting material (prodrug compound)” value was 0%. Besides, for the setting “24 h”, the indirubin was determined as 100%, the indirubin methylene alcohol came to 0% and the “starting material (prodrug compound)” value turned out to be 0%.
As to `CNCCNC(=O)N1C(=O)/C(=C2\Nc3ccccc3C2=O)c2ccccc21.Cl` [drawing 279], the Conversion to indirubin is recorded as 0-20%. In addition, for the setting “15 min”, the indirubin worked out at 0%, the indirubin methylene alcohol is reported as 0% and the “starting material (prodrug compound)” value stood at 100%. Moreover, where the note is “30 min”, the indirubin amounted to 0%, the indirubin methylene alcohol was 0% and the “starting material (prodrug compound)” value was 100%. Moreover, for the setting “1 h”, the indirubin amounted to 0%, the indirubin methylene alcohol was determined as 0% and the “starting material (prodrug compound)” value is listed as 100%. For the setting “2 h”, the indirubin is 0%, the indirubin methylene alcohol came to 0% and the “starting material (prodrug compound)” value came to 100%. For the same compound, where the note is “24 h”, the indirubin was found to be 0%, the indirubin methylene alcohol is 0% and the “starting material (prodrug compound)” value is reported as 100%.
On to `CN(C)CCN(CCN(C)C)CN1C(=O)/C(=C2\Nc3ccccc3C2=O)c2ccccc21` [drawing 271], for which the Conversion to indirubin is 80-100%. Moreover, for the setting “15 min”, the indirubin turned out to be 90%, the indirubin methylene alcohol was 5% and the “starting material (prodrug compound)” value is reported as 4%. In addition, for the setting “30 min”, the indirubin was 94%, the indirubin methylene alcohol came to 4% and the “starting material (prodrug compound)” value is on record as 2%. Where the note is “1 h”, the indirubin is given as 87%, the indirubin methylene alcohol is 9% and the “starting material (prodrug compound)” value was 3%. For the same compound, for the setting “2 h”, the indirubin was found to be 91%, the indirubin methylene alcohol stood at 8% and the “starting material (prodrug compound)” value was determined as 2%. Also, under “24 h”, the indirubin stood at 90%, the indirubin methylene alcohol was 9% and the “starting material (prodrug compound)” value is 1%.
`O=C1/C(=C2/C(=O)N(CN3CCOCC3)c3ccccc32)Nc2ccccc21` [drawing 276]: the Conversion to indirubin is 20-40%. In addition, under “15 min”, the indirubin was 7%, the indirubin methylene alcohol turned out to be 0% and the “starting material (prodrug compound)” value is listed as 89%. Under “30 min”, the indirubin amounted to 8%, the indirubin methylene alcohol turned out to be 0% and the “starting material (prodrug compound)” value was 85%. For the setting “1 h”, the indirubin turned out to be 10%, the indirubin methylene alcohol is 5% and the “starting material (prodrug compound)” value is 85%. For the setting “2 h”, the indirubin was determined as 11%, the indirubin methylene alcohol came out at 3% and the “starting material (prodrug compound)” value is on record as 80%. Where the note is “24 h”, the indirubin turned out to be 29%, the indirubin methylene alcohol is on record as 3% and the “starting material (prodrug compound)” value stood at 68%.
